Data: ChEMBL document CHEMBL1821563, “The discovery and synthesis of JNJ 31020028, a small molecule antagonist of the Neuropeptide Y Y₂ receptor” (Bioorg Med Chem Lett, 2011)

Molecular target: T1, Neuropeptide Y receptor type 2 (Homo sapiens, UniProt P49146)
T1 sequence (P49146 whole entry): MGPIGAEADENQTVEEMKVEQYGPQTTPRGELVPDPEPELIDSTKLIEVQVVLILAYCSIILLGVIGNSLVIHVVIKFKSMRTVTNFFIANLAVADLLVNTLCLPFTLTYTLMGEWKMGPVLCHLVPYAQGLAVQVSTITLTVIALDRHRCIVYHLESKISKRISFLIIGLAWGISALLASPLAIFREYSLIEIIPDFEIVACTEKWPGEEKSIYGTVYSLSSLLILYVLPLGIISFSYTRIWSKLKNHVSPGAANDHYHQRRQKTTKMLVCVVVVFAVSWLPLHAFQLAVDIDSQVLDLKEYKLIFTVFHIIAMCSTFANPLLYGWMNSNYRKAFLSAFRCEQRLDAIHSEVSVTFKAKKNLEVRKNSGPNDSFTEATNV
Assay: Displacement of [125I]PYY from human NPY Y2 receptor expressed endogenously in KAN-Ts cells by scintillation counting
Format: cell-based

Going from `CCOc1ccc(NC(=S)N2CCC(C(O)(c3ccccc3)c3ccccc3)CC2)cc1` to `COC(=O)C(c1ccccc1)N1CCN(c2ccc(NC(=O)c3ccccc3-c3ccccc3)cc2)CC1` (stereo not drawn), the IC50 rises from 200 nM to 530 nM (2.6-fold). The first is the more potent here.

First: COc1cccnc1C(=O)N1CCN(c2ccc(NC(C)(C)c3ccccc3)cc2Cl)CC1
Second: COC(=O)C(c1ccccc1)N1CCN(c2ccc(NC(=O)c3ccccc3-c3cccnc3)cc2F)CC1 (stereo not drawn)
The IC50 of the first is 1.6-fold lower: 25 nM for the first, 40 nM for the second.

`COC(=O)C(c1ccccc1)N1CCN(c2ccc(NC(=O)c3ccccc3-c3ccncc3)cc2)CC1` (stereo not drawn) and `COC(=O)C(c1ccccc1)N1CCN(c2ccc(NC(=O)c3ccccc3-c3cccnc3)cc2)CC1` (stereo not drawn) are within 1.5-fold of each other in IC50: 240 nM for the first, 220 nM for the second.

`COC(=O)C(c1ccccc1)N1CCN(c2ccc(NC(=O)c3ccccc3-c3ccncc3)cc2F)CC1` (stereo not drawn) and `COC(=O)C(c1ccccc1)N1CCN(c2ccc(NC(=O)c3ccccc3-c3ccccc3)cc2F)CC1` (stereo not drawn) are within 1.5-fold of each other in IC50: 37 nM for the first, 52 nM for the second.

First: COC(=O)C(c1ccccc1)N1CCN(c2ccc(NC(=O)c3ccccc3-c3ccccc3)cc2C#N)CC1 (stereo not drawn)
Second: CCNC(=O)C(c1ccccc1)N1CCN(c2ccc(NC(=O)c3ccccc3-c3ccccc3)cc2C#N)CC1 (stereo not drawn)
The IC50 of the first is 2.3-fold higher: 25 nM for the first, 11 nM for the second. The second is the more potent here.

Compared with `COC(=O)C(c1ccccc1)N1CCN(c2ccc(NC(=O)c3ccccc3-c3ccccc3)cc2C)CC1` (stereo not drawn), `CCNC(=O)C(c1ccccc1)N1CCN(c2ccc(NC(=O)c3ccccc3-c3ccccc3)cc2F)CC1` (stereo not drawn) is 2.9-fold lower in IC50: 100 nM for the first, 35 nM for the second.

First: CCC(CC)C(=O)Nc1ccc(N2CCN(C(C(=O)OC)c3ccccc3)CC2)c(F)c1 (stereo not drawn)
Second: CCNC(=O)C(c1ccccc1)N1CCN(c2ccc(NC(=O)C(CC)CC)cc2F)CC1 (stereo not drawn)
The IC50 of the first is 2.2-fold lower: 165 nM for the first, 370 nM for the second.

`CCNC(=O)C(c1ccccc1)N1CCN(c2ccc(NC(=O)c3ccccc3-c3cccnc3)cc2F)CC1` (stereo not drawn) and `CCNC(=O)C(c1ccccc1)N1CCN(c2ccc(NC(=O)c3ccccc3-c3cccnc3)cc2C#N)CC1` (stereo not drawn) are within 1.5-fold of each other in IC50: 42 nM for the first, 30 nM for the second.

`CCNC(=O)C(c1ccccc1)N1CCN(c2ccc(NC(=O)C(CC)CC)cc2C#N)CC1` (stereo not drawn) and `CCC(CC)C(=O)Nc1ccc(N2CCN(C(C(=O)N(CC)CC)c3ccccc3)CC2)c(C#N)c1` (racemic; 32) are within 1.5-fold of each other in IC50: 150 nM for the first, 200 nM for the second.

Compared with `CCN(CC)C(=O)[C@@H](c1ccccc1)N1CCN(c2ccc(NC(=O)c3ccccc3-c3cccnc3)cc2F)CC1`, `CCN(CC)C(=O)[C@H](c1ccccc1)N1CCN(c2ccc(NC(=O)c3ccccc3-c3cccnc3)cc2F)CC1` is 1.6-fold higher in IC50: 9 nM for the first, 14 nM for the second.

Going from `CCN(CC)C(=O)C(c1ccccc1)N1CCN(c2ccc(NC(=O)c3ccccc3-c3cccnc3)cc2F)CC1` (racemic) to `CCN(CC)C(=O)C(c1ccccc1)N1CCN(c2ccc(NC(=O)c3ccccc3-c3ccccc3)cc2F)CC1` (racemic), the IC50 rises from 6 nM to 10 nM (1.7-fold). The first is the more potent here.

First: CCC(CC)C(=O)Nc1ccc(N2CCN(C(C(=O)N(CC)CC)c3ccccc3)CC2)c(F)c1 (racemic)
Second: CCC(CC)C(=O)Nc1ccc(N2CCN(C(C(=O)N(CC)CC)c3ccccc3)CC2)c(C#N)c1 (racemic; 34)
The IC50 of the first is 3.8-fold higher: 50 nM for the first, 13 nM for the second. The second is the more potent here.

In the case of `CCN(CC)C(=O)C(c1ccccc1)N1CCN(c2ccc(NC(=O)c3ccccc3-c3ccccc3)cc2C#N)CC1` (racemic; 28), the IC50 is reported as 37 nM.
For `CCN(CC)C(=O)C(c1ccccc1)N1CCN(c2ccc(NC(=O)c3ccccc3-c3ccccc3)cc2C#N)CC1` (racemic; 30), the IC50 was 8 nM.

Molecular target: CYP2C9 (Homo sapiens, UniProt P11712)
Assay: Inhibition of CYP2C9 at 10 uM
Format: ADME

Chain of CYP2C9 (P11712 whole entry): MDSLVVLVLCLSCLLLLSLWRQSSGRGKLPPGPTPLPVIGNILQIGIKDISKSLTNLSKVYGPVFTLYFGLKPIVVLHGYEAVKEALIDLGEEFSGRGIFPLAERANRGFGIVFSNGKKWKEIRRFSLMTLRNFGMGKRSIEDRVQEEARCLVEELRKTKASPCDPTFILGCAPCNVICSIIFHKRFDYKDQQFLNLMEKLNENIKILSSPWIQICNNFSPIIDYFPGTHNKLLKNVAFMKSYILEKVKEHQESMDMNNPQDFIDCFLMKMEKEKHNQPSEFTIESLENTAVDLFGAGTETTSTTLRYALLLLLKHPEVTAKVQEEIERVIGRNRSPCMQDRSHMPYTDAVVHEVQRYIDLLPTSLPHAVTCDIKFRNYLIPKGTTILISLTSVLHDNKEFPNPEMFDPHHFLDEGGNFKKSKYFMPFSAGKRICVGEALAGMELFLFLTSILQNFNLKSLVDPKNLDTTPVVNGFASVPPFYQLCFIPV

`CCC(CC)C(=O)Nc1ccc(N2CCN(C(C(=O)N(CC)CC)c3ccccc3)CC2)c(C#N)c1` (racemic; 34) was tested, and the inhibition at 10 µM was > 75%.

Molecular target: CYP2D6 (Homo sapiens, UniProt P10635)
Assay: Inhibition of CYP2D6 at 10 uM
Format: ADME

Chain of CYP2D6 (P10635 whole entry): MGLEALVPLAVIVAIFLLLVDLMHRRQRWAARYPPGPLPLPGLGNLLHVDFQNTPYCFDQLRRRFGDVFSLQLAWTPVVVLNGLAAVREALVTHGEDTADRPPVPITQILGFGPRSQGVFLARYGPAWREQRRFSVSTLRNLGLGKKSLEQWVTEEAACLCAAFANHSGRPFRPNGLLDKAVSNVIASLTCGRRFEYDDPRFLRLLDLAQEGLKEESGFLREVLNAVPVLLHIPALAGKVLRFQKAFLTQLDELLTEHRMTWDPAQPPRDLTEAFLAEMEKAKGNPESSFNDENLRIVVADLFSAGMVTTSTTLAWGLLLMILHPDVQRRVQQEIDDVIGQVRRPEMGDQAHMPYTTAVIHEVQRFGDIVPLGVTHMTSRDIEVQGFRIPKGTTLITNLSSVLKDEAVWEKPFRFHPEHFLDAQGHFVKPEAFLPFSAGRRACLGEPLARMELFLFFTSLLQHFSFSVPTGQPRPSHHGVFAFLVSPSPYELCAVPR

`CCC(CC)C(=O)Nc1ccc(N2CCN(C(C(=O)N(CC)CC)c3ccccc3)CC2)c(C#N)c1` (racemic; 34) was tested, and the inhibition at 10 µM was > 75%.
